Experimental data: article PMC10321483 (Chemical Science, 2023)
“And” between values parts separate entries of the source, which are not always exact repeats. Identical values can stand only once.

How the values were obtained:
[1] = system: M. tuberculosis (strain H37Rv); assay: Extracellular assay: M. tuberculosis H37Rv in medium under replicating conditions; type: cell-based, Mycobacterium tuberculosis
HepG2 cells = assay: HepG2 cytotoxicity assay (CellTiter Glo); type: cell-based; settings: 48 h, ATP read-out
Procedure: Solutions of the test compounds (250 nL per well; 11 serial dilutions of 1/3 with starting concentration 100 μM) were dispensed in tissue-culture treated black clear-bottomed 384-well plates (Greiner, cat. no. 781091) with an Echo 555 instrument. 25 μL of HepG2 (ATCC HB-8065) cells (∼3000 cells per well) grown to confluency in Eagle's Minimal Essential Medium (MEM) supplemented with 10% (v/v) heat-inactivated FBS, 1% (v/v) non-essential amino acids (NEAA), and 1% (v/v) penicillin/streptomycin were added to each well. Plates were incubated at 37 °C with 20% O2 and 5% CO2 for 48 h. The plates were then equilibrated to room temperature. ATP levels, measured with CellTiter Glo kit (Promega), were used as cell viability read-out. 25 μL of CellTiter Glo substrate dissolved in the buffer was added to each well. Plates were incubated at room temperature for 10 min and read on ViewLux (PerkinElmer) […].

LdtMt2 [2] = target: T1, LdtMt2 (Mycobacterium tuberculosis, UniProt I6Y9J2); assay: biochemical; type: binding; set-up: made in house; host or cells: E. coli; settings: for Tm: melting point of LdtMt2 after pre-incubation with the compound: pH 7.5
T1 sequence (I6Y9J2 56-408): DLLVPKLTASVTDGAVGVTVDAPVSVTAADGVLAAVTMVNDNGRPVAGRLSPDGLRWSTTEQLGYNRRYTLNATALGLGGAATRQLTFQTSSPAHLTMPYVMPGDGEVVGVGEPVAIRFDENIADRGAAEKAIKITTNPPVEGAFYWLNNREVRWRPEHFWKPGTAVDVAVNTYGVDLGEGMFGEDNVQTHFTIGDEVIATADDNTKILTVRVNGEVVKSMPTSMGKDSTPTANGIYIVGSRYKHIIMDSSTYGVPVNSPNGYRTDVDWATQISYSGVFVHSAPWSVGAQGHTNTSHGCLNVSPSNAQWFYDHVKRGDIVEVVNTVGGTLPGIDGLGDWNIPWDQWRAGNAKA
Procedure: LdtMt2 (5 μM) was incubated with the inhibitor (500 μM) in assay buffer (50 mM tris pH 7.5) for 30 minutes at room temperature in 96-well white PCR plates (25 μL final volume, Starlab). SYPRO Orange (final concentration 6×, according to manufacturer's definition, Invitrogen) was then added and the plate was sealed using a transparent plastic film (Polyolefin StarSeal, Starlab). Fluorescence was monitored (with λex = 492 nm and λem = 610 nm) using a CFX96 Touch Real-Time PCR Detection System (Bio-Rad), while the temperature was increased from 20 to 95 °C in increments of 0.2 °C. Melting temperatures (Tms) were determined using the CFX Maestro Software (Bio-Rad).

LdtMt2 [3] = target: T1, LdtMt2; assay: biochemical; type: biochemical; set-up: made in house; host or cells: E. coli
[4] = Intrinsic thiol reactivity (kchem), competition with probe 2 for L-glutathione; type: physicochemical
BlaC = target: T2, BlaC (Mycobacterium tuberculosis, UniProt P9WKD3); assay: BlaC fluorogenic inhibition assay with FC5 (dose-response); type: biochemical; settings: Table S5 HTS hits; 30 minute inhibitor pre-incubation; two independent repeats
T2 construct: made in house; host or cells: E. coli
T2 sequence (P9WKD3 35-307): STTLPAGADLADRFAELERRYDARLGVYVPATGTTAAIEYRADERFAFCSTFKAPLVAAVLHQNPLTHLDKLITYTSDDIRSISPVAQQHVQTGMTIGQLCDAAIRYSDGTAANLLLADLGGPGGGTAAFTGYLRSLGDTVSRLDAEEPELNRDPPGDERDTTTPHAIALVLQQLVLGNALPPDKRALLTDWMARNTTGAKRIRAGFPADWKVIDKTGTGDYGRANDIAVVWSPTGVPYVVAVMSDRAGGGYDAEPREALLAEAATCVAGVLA
Procedure: Two types of controls were used. […] In control 2, the BlaC mixture was substituted with the assay buffer. This mixture was incubated for 30 minutes at room temperature without shaking. […] Data were analysed using ActivityBase (IDBS).

[5] = system: M. tuberculosis (strain H37Rv) growth in THP1 cells; assay: Intracellular assay: Mtb H37Rv-Luc in THP-1 macrophages; type: cell-based, Mycobacterium tuberculosis; settings: 5 days, extrapolated from dose-response curve
LdtMt2 [6] = target: T1, LdtMt2; assay: Rate constant of covalent target inactivation (kinact/KI), endpoint competition assay with probe 2; type: biochemical; set-up: made in house; host or cells: E. coli; settings: 100 nM LdtMt2, 10 µM probe 2, 3 h incubation; n=4
[7] = Table S5, L-glutathione 500 nM, probe 2 10 µM, 15 h

Row | SMILES | MIC50 [1] | IC50 (HepG2 cells) | ΔTm: difference in melting point of LdtMt2 relative to unreacted LdtMt2 (43.8 °C) (LdtMt2 [2]) | Tm: melting point of LdtMt2 after pre-incubation with the compound (LdtMt2 [2]; in °C (unit assumed)) | LE (ligand efficiency) (LdtMt2 [3]) | pIC50, 0 min (LdtMt2 [3]) | pIC50, 10 min (LdtMt2 [3]) | pIC50, 60 min (LdtMt2 [3]) | pIC50, 120 min (LdtMt2 [3]) | kchem (apparent intrinsic thiol reactivity) [4, 7] | pIC50 BlaC (BlaC) | MIC50 intracellular [5] | kinact/KI (LdtMt2 [6]) | lowered the melting temperature of LdtMt2 by (LdtMt2 [2]) | pIC50 LdtMt2 (LdtMt2 [3]) | kchem (apparent intrinsic thiol reactivity) ([4]; Table S10 known cyanating compounds, unit printed in b38 only) | Tm: melting point of LdtMt2 after pre-incubation with the compound (LdtMt2 [2])
1 | COc1ccc(CN2C(=O)C(=O)c3cc(Br)cc(C)c32)cc1OC [Compound 17] | > 100 µM | 53.5 ± 6.7 µM | +3.0 | 46.8 ± 0.00 | 0.47 | 6.48 ± 0.14 | 6.33 ± 0.14 | 6.28 ± 0.45 | 6.45 ± 0.26 | < 0.08 M⁻¹ s⁻¹ | < 4.0 |  |  |  |  |  | 
2 | O=C(NC(Cc1ccccc1)C(=O)CCl)c1cc(Cc2ccccc2)on1 (centres unmarked) [Compound 1] | > 100 µM |  |  |  | 0.41 |  |  |  |  |  | < 4.0 | 35.5 ± 4.9 µM and < 50 µM | 1152 ± 87 M⁻¹ s⁻¹ |  |  |  | 
3 | N#Cn1c(-c2ccncc2)nc2ccc(C(=O)c3ccccc3)cc21 [Compound 36] | > 100 µM | 32.7 ± 0.38 µM | -3.0 | 40.8 ± 0.59 | 0.45 |  |  |  |  |  | < 4.0 | 29.5 ± 0.0 µM and < 50 µM | 51.0 ± 3.4 M⁻¹ s⁻¹ | 3.0 °C |  |  | 
4 | N#Cn1cnc2ccccc21 [Compound 40] |  |  |  |  |  |  |  |  |  |  |  |  |  |  | 6.31 ± 0.03 | 0.90 ± 0.05 M⁻¹ s⁻¹ and 0.90 M⁻¹ s⁻¹ | 
5 | O=C1CN(C(=O)C=Cc2ccco2)c2ccccc2N1 [Compound 12] |  |  | +0.3 | 44.1 ± 0.09 | 0.56 |  |  |  |  | 0.55 ± 0.11 M⁻¹ s⁻¹ | < 4.0 |  |  |  |  |  | 
6 | O=C(OCN1C(=O)C=CC1=O)c1ccccc1 [Compound 7] | > 100 µM | 3.9 ± 0.88 µM |  |  | 0.66 |  |  |  |  |  |  | 39.8 ± 0.0 µM and < 50 µM | 156 ± 5.1 M⁻¹ s⁻¹ |  |  |  | 43.1 ± 0.09 °C
7 | CC(N)C(=O)NC1CCN(c2ccc(N3CCCC3)cc2C#N)C1 (centres unmarked) [Compound 39] | > 100 µM | > 100 µM | -0.7 | 43.1 ± 0.10 | 0.47 |  |  |  |  |  | < 4.0 | 28.8 ± 0.0 µM and < 50 µM |  |  |  |  | 
8 | NC(=O)OCC1=C(C(=O)O)N2C(=O)C(NC(=O)C(=CS(=O)(=O)CCc3ccc(O)c(O)c3)c3csc(N)n3)C2SC1 (centres unmarked) [Compound 20] | > 100 µM | > 100 µM | -1.1 | 42.7 ± 0.25 | 0.28 |  |  |  |  |  | 7.72 | 38.9 ± 1.8 µM and < 50 µM |  |  |  |  | 
9 | O=C1C=CC(=O)N1c1ccc(Oc2ccccc2)c(Cl)c1 [Compound 5] | > 100 µM | 2.51 ± 0.12 µM | -0.2 °C |  | 0.53 |  |  |  |  |  |  | 25.7 ± 0.30 µM and < 50 µM | 116 ± 6.2 M⁻¹ s⁻¹ |  |  |  | 43.6 ± 0.16 °C
